Source: patent US5240959A, “Aranorosinol-A and aranorosinol-B produced by Pseudoarachniotus roseus” (Hoechst Aktiengesellschaft, priority 1991, dated 1993)
Values after ≈ are worked out from the molar mass of the structure shown.

Experiments:
[1] = test system: Staphylococcus aureus 209 P; assay: Minimum inhibitory concentration, Staphylococcus aureus 209 P; type: cell-based
Text: (§1) The minimum inhibitory concentrations required to inhibit different bacteria and fungal strains by Aranorosinol-A and Aranorosinol-B are given in Table I

[2] = test system: Staphylococcus aureus 20240; assay: Minimum inhibitory concentration, Staphylococcus aureus 20240; type: cell-based
Text: as §1

[3] = test system: Bacillus subtilis; assay: Minimum inhibitory concentration, Bacillus subtilis; type: cell-based
Text: as §1

[4] = test system: Streptococcus faecalis; assay: Minimum inhibitory concentration, Streptococcus faecalis; type: cell-based; conditions: Enterococcus faecalis
Text: as §1

[5] = test system: E. coli Ess 2231; assay: Minimum inhibitory concentration, E. coli Ess 2231; type: cell-based; conditions: Escherichia coli, ESS2231
Text: as §1

[6] = test system: E. coli 9632; assay: Minimum inhibitory concentration, E. coli 9632; type: cell-based; conditions: Escherichia coli
Text: as §1

[7] = test system: Proteus vulgaris; assay: Minimum inhibitory concentration, Proteus vulgaris; type: cell-based
Text: as §1

[8] = test system: Salmonella typhimurium; assay: Minimum inhibitory concentration, Salmonella typhimurium; type: cell-based; conditions: Salmonella enterica
Text: as §1

[9] = test system: Klebsiella pneumoniae; assay: Minimum inhibitory concentration, Klebsiella pneumoniae; type: cell-based
Text: as §1

[10] = test system: Pseudomonas aeruginosa; assay: Minimum inhibitory concentration, Pseudomonas aeruginosa; type: cell-based
Text: as §1

[11] = test system: Candida albicans; assay: Minimum inhibitory concentration, Candida albicans; type: cell-based
Text: as §1

[12] = test system: Saccharomyces cerevisiae; assay: Minimum inhibitory concentration, Saccharomyces cerevisiae; type: cell-based
Text: as §1

[13] = test system: Aspergillus niger; assay: Minimum inhibitory concentration, Aspergillus niger; type: cell-based
Text: as §1

[14] = test system: Trichophyton mentagrophytes; assay: Minimum inhibitory concentration, Trichophyton mentagrophytes; type: cell-based
Text: as §1

[15] = test system: Microsporum; assay: Minimum inhibitory concentration, Microsporum; type: cell-based
Text: as §1

[16] = test system: bacteria and fungal strains; assay: Antibacterial and antifungal activity spectrum; type: cell-based; conditions: conclusion from Table I
Text: as §1

[17] = Solubility; type: physicochemical
[18] = in dichloromethane, chloroform, acetone, methanol, diethyl ether, ethyl acetate and dimethyl sulfoxide

| SMILES | MIC [1] [µg/mL] | MIC [2] [µg/mL] | MIC [3] [µg/mL] | MIC [4] [µg/mL] | MIC [5] [µg/mL] | MIC [6] [µg/mL] | MIC [7] [µg/mL] | MIC [8] [µg/mL] | MIC [9] [µg/mL] | MIC [10] [µg/mL] | MIC [11] [µg/mL] | MIC [12] [µg/mL] | MIC [13] [µg/mL] | MIC [14] [µg/mL] | MIC [15] [µg/mL] | activity against bacteria and fungi (in words) [16] | Solubility [17, 18] | Solubility ([17]; in n-hexane, water) |
| --- | --- | --- | --- | --- | --- | --- | --- | --- | --- | --- | --- | --- | --- | --- | --- | --- | --- | --- |
| CCCCCCC(C)/C=C(C)/C=C/C(=O)NC1CC2(OC1O)C1OC1C(O)C1OC12 (stereo not drawn) [Aranorosinol-A] | 15.6 (≈ 37 µM) | 31.2 (≈ 74.1 µM) | 3.9 (≈ 9.25 µM) | 31.2 (≈ 74.1 µM) | 62.5 (≈ 148 µM) | > 250 | > 250 | > 250 | > 250 | > 250 | 62.5 (≈ 148 µM) | 31.2 (≈ 74.1 µM) | > 250 | 62.5 (≈ 148 µM) | > 250 | active against Gram-positive, Gram-negative bacteria and against yeast and filamentous fungi | soluble | Insoluble |
| CCCCCCC(C)/C=C(C)/C=C/C(=O)NC1CC2(OC1O)C1OC1C(O)(CC(C)=O)C1OC12 (stereo not drawn) [Aranorosinol-B] | 31.2 (≈ 65.4 µM) | 15.6 (≈ 32.7 µM) | 15.6 (≈ 32.7 µM) | 125 (≈ 262 µM) | > 250 | > 250 | > 250 | > 250 | > 250 | > 250 | 250 (≈ 523 µM) | 250 (≈ 523 µM) | > 250 | > 250 | > 250 | active against Gram-positive bacteria only | soluble | Insoluble |
